Assays:
[1] = Distance between Hansen solubility parameter of the substance and that of phenol, HSP (phenol); type: physicochemical; conditions: distance to Hansen solubility parameter of phenol, 25° C.
Excerpt: The Hansen solubility parameter is obtained by decomposing solubility parameter δt (SP) introduced by a person into dispersion force contribution term δd between molecules, dipole interaction contribution term δp between molecules, and hydrogen bond contribution term δh between molecules, thereby extending an applicable substance to a polar substance and a substance generating hydrogen bonding. […] The relationship between the solubility parameter δt and the three contribution terms is shown in the following formula: […]
The three parameters of the dispersion force contribution term δd, the dipole interaction contribution term δp, and the hydrogen bond contribution term δh can be regarded as coordinates in a three-dimensional space with the respective parameters as axes. Since various substances have specific HSPs at a specified temperature, HSPs of these substances are represented as points at different positions in the three-dimensional space as shown in FIG. 1. The solubility (compatibility) between given substance i and another substance j is considered to be higher as distance Rij between two points represented by the following formula becomes smaller.
Accordingly, a magnitude of influence of given substance X on phenol selective filtering performance can be evaluated by obtaining a distance between a position of HSP of phenol and a position of HSP of the given substance X in the three-dimensional space. In the present specification and claims, the distance Rij obtained from the Hansen solubility parameter of phenol and the Hansen solubility parameter of the given substance X according to the above formula is defined as HSP (phenol).

[2] = Octanol/water partition coefficient Log P at 25° C.; conditions: for logP: n-octanol/water
[3] = Dropping point DP of the substance (JIS K2220:2013); type: physicochemical
Protocol: A substance having a dropping point (DP) of 50° C. or higher is less likely to be fluidized under relatively high temperature storage conditions, e.g., in a vending machine having a high temperature. […] Furthermore, when the phenol scavenger contains a substance that is less likely to leak out from a filter or the like, the substance is likely to remain in the filter or the like, and therefore, a member having excellent phenol selective filtering performance can be realized. […] The dropping point of the substance is preferably in a range from 50° C. to 130° C. When the dropping point of the substance is excessively high, the phenol scavenger containing the substance may not be easily carried by a filter or the like, which is not preferable. The dropping point of the substance can be measured according to JIS K2220:2013.
In general, a “dropping point” is a physical property specified for a substance that is semisolid at room temperature such as grease, but a “dropping point” herein is a physical property specified not only for a substance that is semisolid at room temperature but also for a substance that is solid at room temperature. A dropping point of a substance that is solid at room temperature is, for example, equal to its melting point.

SMILES	HSP (phenol) [1]	Vapor Pressure (Pa) at 25° C.	logP (physchem)	logP [2]	dropping point DP [3]	Partition Coefficient Log P at 25° C. ([2]; octanol/water, 25° C.)
CC(O)CO (centres unmarked) [Propylene glycol, propylene glycol, reference compound]	8					
CC(O)CCO (centres unmarked) [1,3-butanediol]		8 Pa	-0.74			
COc1cc(CCC(C)=O)ccc1O [Zingerone, zingerone]	5.56	0 Pa		1.54	54 °C	
CC(=O)OCC(COC(C)=O)OC(C)=O [Triacetin, triacetin, reference compound]	7.18	0 Pa			4 °C	0.25
Cc1occc(=O)c1O [Maltol, maltol]	6.89			-0.26	78 °C	
CC1=C(O)C(=O)CC1 [Cyclotene, cyclotene]	5.37			0.22	71 °C	
O=C(O)c1ccccc1 [Benzoic acid, benzoic acid]	5.17				122 °C	
CCOC(=O)CCC(=O)OCC [Diethyl succinate, diethyl succinate, reference compound]				1.26		

From patent US12593865B2, “Member for flavor inhalation article, flavor inhalation article, phenol scavenger for flavor inhalation article, and method for producing flavor inhalation article” (Japan Tobacco Inc., priority 2019, dated 2026)
